Measurements: article PMC2632761 (Journal of biomolecular screening, 2009)
Like-named read-outs stand apart in the source and are kept apart here.

Experiments:
hPPARγ = target: T1, hPPARγ (Homo sapiens, UniProt P37231); test: PPARγ SPA ligand competition binding assay
T1 sequence (P37231 238-503 limits assumed): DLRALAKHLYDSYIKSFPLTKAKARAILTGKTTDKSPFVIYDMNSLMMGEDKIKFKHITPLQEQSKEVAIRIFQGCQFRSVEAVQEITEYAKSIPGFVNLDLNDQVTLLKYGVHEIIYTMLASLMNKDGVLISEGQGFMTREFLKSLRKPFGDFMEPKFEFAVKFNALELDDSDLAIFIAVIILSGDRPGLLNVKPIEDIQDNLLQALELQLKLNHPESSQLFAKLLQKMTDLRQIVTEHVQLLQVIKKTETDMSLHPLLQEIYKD

[1] = target: T2, AR-LBD (androgen receptor) (Pan troglodytes, UniProt O97775); test: AR SPA ligand competition binding assay
T2 sequence (O97775 655-911 limits assumed): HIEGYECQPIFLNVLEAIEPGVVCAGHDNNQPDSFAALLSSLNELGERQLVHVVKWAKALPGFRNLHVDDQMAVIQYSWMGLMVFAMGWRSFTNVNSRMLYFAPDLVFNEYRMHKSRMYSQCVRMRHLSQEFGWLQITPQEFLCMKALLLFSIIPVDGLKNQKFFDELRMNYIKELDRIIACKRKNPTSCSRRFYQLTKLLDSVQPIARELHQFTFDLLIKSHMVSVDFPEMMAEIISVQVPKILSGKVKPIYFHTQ

hTRβ = target: T3, hTRβ (Homo sapiens, UniProt P10828); test: TRβ SPA ligand competition binding assay
T3 sequence (P10828 217-461 limits assumed): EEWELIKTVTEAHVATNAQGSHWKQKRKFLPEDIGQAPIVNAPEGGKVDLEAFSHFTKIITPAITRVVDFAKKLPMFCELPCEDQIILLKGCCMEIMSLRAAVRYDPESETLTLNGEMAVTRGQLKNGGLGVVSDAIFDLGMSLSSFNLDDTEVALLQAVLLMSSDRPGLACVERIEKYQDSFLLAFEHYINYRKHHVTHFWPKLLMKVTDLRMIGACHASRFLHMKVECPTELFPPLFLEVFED

hTRα = target: T4, hTRα (Homo sapiens, UniProt P10827); test: TRα SPA ligand competition binding assay
T4 sequence (P10827 148-410 isoform P10827-2 limits assumed): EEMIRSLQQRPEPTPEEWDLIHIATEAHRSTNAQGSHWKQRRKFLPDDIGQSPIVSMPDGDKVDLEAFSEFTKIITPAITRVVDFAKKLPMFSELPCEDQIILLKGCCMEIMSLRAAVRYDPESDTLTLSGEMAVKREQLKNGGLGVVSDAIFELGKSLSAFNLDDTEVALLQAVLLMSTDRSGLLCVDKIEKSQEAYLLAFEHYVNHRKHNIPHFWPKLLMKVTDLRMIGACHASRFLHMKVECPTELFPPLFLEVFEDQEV

Q: CCCCC/C=C\C/C=C\C/C=C\C/C=C\CCCC(=O)O [Arachidonic Acid] was tested. Which IC50 (hPPARγ) did it give?
A: 4.2 ± 0.53 µM

Q: Which IC50 (hPPARγ; read-out: IC50 PPARγ, SPA competition, 40 nM [3H]-Rosiglitazone) does the source give for O=C(Nc1ccccc1)c1cc([N+](=O)[O-])ccc1Cl [GW9662] here?
A: 0.23 ± 0.02 µM

Q: For CC(C)(O)C(=O)Nc1ccc([N+](=O)[O-])c(C(F)(F)F)c1 [Hydroxyflutamide], which IC50 [1] is on record?
A: 33 ± 8 µM

Q: With CCCCC/C=C\C/C=C\CCCCCCCC(=O)O [Lineolic Acid] as the compound, how does the IC50 (hPPARγ) read?
A: 3.8 ± 0.49 µM

Q: C[C@]1(O)CC[C@H]2[C@@H]3CCC4=CC(=O)CCC4=C3C=C[C@@]21C [Methyltrienolone (R1881), Methyltrienolone] was tested. Which IC50 ([1]; IC50 AR) did it give?
A: 0.11 ± 0.02 µM

Q: What does the source list for O=C(O)c1cc(I)c(Oc2ccc(O)c(I)c2)c(I)c1 [T3Bz, 4-(4'-Hydroxy-3'-iodophenoxy)-3,5-diiodo-benzoic acid]?
A: IC50 (hTRβ): 10 ± 4 µM; IC50 (hTRα): 12 ± 2 µM

Q: With O=C(O)Cc1cc(I)c(Oc2cc(I)c(O)c(I)c2)c(I)c1 [T4Ac, 3,3’,5,5’-tetraiodothyroacetic acid] as the compound, how does the IC50 (hTRβ; read-out: IC50 TRβ, SPA competition, 1 nM [125I]-T3) read?
A: 5 ± 2 µM

Q: What about the IC50 (hTRα; read-out: IC50 TRα, SPA competition, 1 nM [125I]-T3) of the same compound?
A: 10 ± 2 µM
